This is an account of results in BindingDB's records for doi:10.1016/S0960-894X(96)00248-X (1996).

The structures appear in SMILES notation.

The test can be described thus: Inhibitory activity against gastrin receptor.

`Cc1cccc(NC(=O)NC2N=C(c3ccccc3)c3ccccc3N(CC(=O)NCCCOc3cccc(CN4CCCCC4)c3)C2=O)c1` (centres undefined) [2-[2-Oxo-5-phenyl-3-(3-m-tolyl-ureido)-2,3-dihydro-benzo[e][1,4]diazepin-1-yl]-N-[3-(3-piperidin-1-ylmethyl-phenoxy)-propyl]-acetamide] had a half-maximal inhibitory concentration (IC50) of 155 nM. To `Cc1cccc(NC(=O)NC2N=C(c3ccccc3)c3ccccc3N(CC(=O)NCC(=O)NCCCOc3cccc(CN4CCCCC4)c3)C2=O)c1` (centres undefined) [2-[2-Oxo-5-phenyl-3-(3-m-tolyl-ureido)-2,3-dihydro-benzo[e][1,4]diazepin-1-yl]-N-{[3-(3-piperidin-1-ylmethyl-phenoxy)-propylcarbamoyl]-methyl}-acetamide] belongs 790 nM; to `Cc1cccc(NC(=O)NC2N=C(c3cccc(OCC(=O)NCCCOc4cccc(CN5CCCCC5)c4)c3)c3ccccc3N(C)C2=O)c1` (centres undefined) [2-{3-[1-Methyl-2-oxo-3-(3-m-tolyl-ureido)-2,3-dihydro-1H-benzo[e][1,4]diazepin-5-yl]-phenoxy}-N-[3-(3-piperidin-1-ylmethyl-phenoxy)-propyl]-acetamide], 570 nM; to `Cc1cccc(NC(=O)NC2N=C(c3cccc(OCC(=O)NCC(=O)NCCCOc4cccc(CN5CCCCC5)c4)c3)c3ccccc3N(C)C2=O)c1` (centres undefined) [2-{3-[1-Methyl-2-oxo-3-(3-m-tolyl-ureido)-2,3-dihydro-1H-benzo[e][1,4]diazepin-5-yl]-phenoxy}-N-{[3-(3-piperidin-1-ylmethyl-phenoxy)-propylcarbamoyl]-methyl}-acetamide], 63 nM. Turning to `CN1C(=O)[C@H](NC(=O)Nc2cccc(CC(=O)NCCCOc3cccc(CN4CCCCC4)c3)c2)N=C(c2ccccc2)c2ccccc21` [2-{3-[3-((R)-1-Methyl-2-oxo-5-phenyl-2,3-dihydro-1H-benzo[e][1,4]diazepin-3-yl)-ureido]-phenyl}-N-[3-(3-piperidin-1-ylmethyl-phenoxy)-propyl]-acetamide], half-maximal inhibition (IC50) required 230 nM.

As to `Cc1cccc(NC(=O)NC2N=C(c3cccc(OCC(=O)NCCC(=O)NCCCOc4cccc(CN5CCCCC5)c4)c3)c3ccccc3N(C)C2=O)c1` (centres undefined) [3-(2-{3-[1-Methyl-2-oxo-3-(3-m-tolyl-ureido)-2,3-dihydro-1H-benzo[e][1,4]diazepin-5-yl]-phenoxy}-acetylamino)-N-[3-(3-piperidin-1-ylmethyl-phenoxy)-propyl]-propionamide], inhibition was half-maximal at 200 nM (IC50). For the compound `CN1C(=O)[C@H](NC(=O)Nc2cccc(CC(=O)NCCC(=O)NCCCOc3cccc(CN4CCCCC4)c3)c2)N=C(c2ccccc2)c2ccccc21` [3-(2-{3-[3-((R)-1-Methyl-2-oxo-5-phenyl-2,3-dihydro-1H-benzo[e][1,4]diazepin-3-yl)-ureido]-phenyl}-acetylamino)-N-[3-(3-piperidin-1-ylmethyl-phenoxy)-propyl]-propionamide], the IC50 turned out to be 136 nM. The value for `CN1C(=O)[C@H](NC(=O)Nc2cccc(C(=O)NCCCOc3cccc(CN4CCCCC4)c3)c2)N=C(c2ccccc2)c2ccccc21` [3-[3-((R)-1-Methyl-2-oxo-5-phenyl-2,3-dihydro-1H-benzo[e][1,4]diazepin-3-yl)-ureido]-N-[3-(3-piperidin-1-ylmethyl-phenoxy)-propyl]-benzamide] was 550 nM; that for `Cc1cccc(NC(=O)NC2N=C(c3ccccc3)c3ccccc3N(CC(=O)NCCC(=O)NCCCOc3cccc(CN4CCCCC4)c3)C2=O)c1` (centres undefined) [3-{2-[2-Oxo-5-phenyl-3-(3-m-tolyl-ureido)-2,3-dihydro-benzo[e][1,4]diazepin-1-yl]-acetylamino}-N-[3-(3-piperidin-1-ylmethyl-phenoxy)-propyl]-propionamide] was 185 nM. The value for `Cc1cccc(NC(=O)NC2N=C(c3cccc(OCC(=O)NCCCC(=O)NCCCOc4cccc(CN5CCCCC5)c4)c3)c3ccccc3N(C)C2=O)c1` (centres undefined) [4-(2-{3-[1-Methyl-2-oxo-3-(3-m-tolyl-ureido)-2,3-dihydro-1H-benzo[e][1,4]diazepin-5-yl]-phenoxy}-acetylamino)-N-[3-(3-piperidin-1-ylmethyl-phenoxy)-propyl]-butyramide] was 60 nM. Compound `CN1C(=O)[C@H](NC(=O)Nc2cccc(CC(=O)NCCCC(=O)NCCCOc3cccc(CN4CCCCC4)c3)c2)N=C(c2ccccc2)c2ccccc21` [4-(2-{3-[3-((R)-1-Methyl-2-oxo-5-phenyl-2,3-dihydro-1H-benzo[e][1,4]diazepin-3-yl)-ureido]-phenyl}-acetylamino)-N-[3-(3-piperidin-1-ylmethyl-phenoxy)-propyl]-butyramide] gave an IC50 of 115 nM. Consider `Cc1cccc(NC(=O)NC2N=C(c3ccccc3)c3ccccc3N(CC(=O)NCCCC(=O)NCCCOc3cccc(CN4CCCCC4)c3)C2=O)c1` (centres undefined) [4-{2-[2-Oxo-5-phenyl-3-(3-m-tolyl-ureido)-2,3-dihydro-benzo[e][1,4]diazepin-1-yl]-acetylamino}-N-[3-(3-piperidin-1-ylmethyl-phenoxy)-propyl]-butyramide], for which half-maximal inhibition (IC50) required 210 nM. To `Cc1cccc(NC(=O)NC2N=C(c3cccc(OCC(=O)NCCCCCC(=O)NCCCOc4cccc(CN5CCCCC5)c4)c3)c3ccccc3N(C)C2=O)c1` (centres undefined) [6-(2-{3-[1-Methyl-2-oxo-3-(3-m-tolyl-ureido)-2,3-dihydro-1H-benzo[e][1,4]diazepin-5-yl]-phenoxy}-acetylamino)-hexanoic acid [3-(3-piperidin-1-ylmethyl-phenoxy)-propyl]-amide] belongs 32 nM; to `CN1C(=O)[C@H](NC(=O)Nc2cccc(CC(=O)NCCCCCC(=O)NCCSCc3csc(N=C(N)N)n3)c2)N=C(c2ccccc2)c2ccccc21` [6-(2-{3-[3-((R)-1-Methyl-2-oxo-5-phenyl-2,3-dihydro-1H-benzo[e][1,4]diazepin-3-yl)-ureido]-phenyl}-acetylamino)-hexanoic acid [2-(2-guanidino-thiazol-4-ylmethylsulfanyl)-ethyl]-amide], 45 nM. The value for `CN1C(=O)[C@H](NC(=O)Nc2cccc(CC(=O)NCCCCCC(=O)NCCCOc3cccc(CN4CCCCC4)c3)c2)N=C(c2ccccc2)c2ccccc21` [6-(2-{3-[3-((R)-1-Methyl-2-oxo-5-phenyl-2,3-dihydro-1H-benzo[e][1,4]diazepin-3-yl)-ureido]-phenyl}-acetylamino)-hexanoic acid [3-(3-piperidin-1-ylmethyl-phenoxy)-propyl]-amide] was 110 nM. To `Cc1cccc(NC(=O)NC2N=C(c3ccccc3)c3ccccc3N(CC(=O)NCCCCCC(=O)NCCCOc3cccc(CN4CCCCC4)c3)C2=O)c1` (centres undefined) [6-{2-[2-Oxo-5-phenyl-3-(3-m-tolyl-ureido)-2,3-dihydro-benzo[e][1,4]diazepin-1-yl]-acetylamino}-hexanoic acid [3-(3-piperidin-1-ylmethyl-phenoxy)-propyl]-amide] belongs 16 nM.

For `Cc1cccc(NC(=O)NC2N=C(c3ccccc3)c3ccccc3N(CC(=O)NCCSCc3csc(N=C(N)N)n3)C2=O)c1` (centres undefined) [N-[2-(2-Guanidino-thiazol-4-ylmethylsulfanyl)-ethyl]-2-[2-oxo-5-phenyl-3-(3-m-tolyl-ureido)-2,3-dihydro-benzo[e][1,4]diazepin-1-yl]-acetamide], the IC50 came out at 3 nM. Compared with the last compound, the IC50 is about 5.3-fold lower. To `Cc1cccc(NC(=O)NC2N=C(c3cccc(OCC(=O)NCCSCc4csc(N=C(N)N)n4)c3)c3ccccc3N(C)C2=O)c1` (centres undefined) [N-[2-(2-Guanidino-thiazol-4-ylmethylsulfanyl)-ethyl]-2-{3-[1-methyl-2-oxo-3-(3-m-tolyl-ureido)-2,3-dihydro-1H-benzo[e][1,4]diazepin-5-yl]-phenoxy}-acetamide] belongs 135 nM; to `CN1C(=O)[C@H](NC(=O)Nc2cccc(CC(=O)NCCSCc3csc(N=C(N)N)n3)c2)N=C(c2ccccc2)c2ccccc21` [N-[2-(2-Guanidino-thiazol-4-ylmethylsulfanyl)-ethyl]-2-{3-[3-((R)-1-methyl-2-oxo-5-phenyl-2,3-dihydro-1H-benzo[e][1,4]diazepin-3-yl)-ureido]-phenyl}-acetamide], 168 nM.

For `Cc1cccc(NC(=O)NC2N=C(c3cccc(OCC(=O)NCCC(=O)NCCSCc4csc(N=C(N)N)n4)c3)c3ccccc3N(C)C2=O)c1` (centres undefined) [N-[2-(2-Guanidino-thiazol-4-ylmethylsulfanyl)-ethyl]-3-(2-{3-[1-methyl-2-oxo-3-(3-m-tolyl-ureido)-2,3-dihydro-1H-benzo[e][1,4]diazepin-5-yl]-phenoxy}-acetylamino)-propionamide], it took 25 nM to reach half-maximal inhibition (IC50). Take `CN1C(=O)[C@H](NC(=O)Nc2cccc(CC(=O)NCCC(=O)NCCSCc3csc(N=C(N)N)n3)c2)N=C(c2ccccc2)c2ccccc21` [N-[2-(2-Guanidino-thiazol-4-ylmethylsulfanyl)-ethyl]-3-(2-{3-[3-((R)-1-methyl-2-oxo-5-phenyl-2,3-dihydro-1H-benzo[e][1,4]diazepin-3-yl)-ureido]-phenyl}-acetylamino)-propionamide]: half-maximal inhibition (IC50) required 80 nM. Compared with the last compound, the IC50 is about 3.2-fold higher. To `Cc1cccc(NC(=O)NC2N=C(c3ccccc3)c3ccccc3N(CC(=O)NCCC(=O)NCCSCc3csc(N=C(N)N)n3)C2=O)c1` (centres undefined) [N-[2-(2-Guanidino-thiazol-4-ylmethylsulfanyl)-ethyl]-3-{2-[2-oxo-5-phenyl-3-(3-m-tolyl-ureido)-2,3-dihydro-benzo[e][1,4]diazepin-1-yl]-acetylamino}-propionamide] belongs 75 nM; to `Cc1cccc(NC(=O)NC2N=C(c3cccc(OCC(=O)NCCCC(=O)NCCSCc4csc(N=C(N)N)n4)c3)c3ccccc3N(C)C2=O)c1` (centres undefined) [N-[2-(2-Guanidino-thiazol-4-ylmethylsulfanyl)-ethyl]-4-(2-{3-[1-methyl-2-oxo-3-(3-m-tolyl-ureido)-2,3-dihydro-1H-benzo[e][1,4]diazepin-5-yl]-phenoxy}-acetylamino)-butyramide], 14 nM; to `CN1C(=O)[C@H](NC(=O)Nc2cccc(CC(=O)NCCCC(=O)NCCSCc3csc(N=C(N)N)n3)c2)N=C(c2ccccc2)c2ccccc21` [N-[2-(2-Guanidino-thiazol-4-ylmethylsulfanyl)-ethyl]-4-(2-{3-[3-((R)-1-methyl-2-oxo-5-phenyl-2,3-dihydro-1H-benzo[e][1,4]diazepin-3-yl)-ureido]-phenyl}-acetylamino)-butyramide], 240 nM.
